For 21 compounds, IC50 and EC50 results are on record in patent US12459922B2 (Gilead Sciences, Inc., priority 2022, dated 2025).

For one assay, the target named is T1, PARP7 (Homo sapiens, UniProt Q7Z3E1).
T1 sequence (Q7Z3E1 1-657): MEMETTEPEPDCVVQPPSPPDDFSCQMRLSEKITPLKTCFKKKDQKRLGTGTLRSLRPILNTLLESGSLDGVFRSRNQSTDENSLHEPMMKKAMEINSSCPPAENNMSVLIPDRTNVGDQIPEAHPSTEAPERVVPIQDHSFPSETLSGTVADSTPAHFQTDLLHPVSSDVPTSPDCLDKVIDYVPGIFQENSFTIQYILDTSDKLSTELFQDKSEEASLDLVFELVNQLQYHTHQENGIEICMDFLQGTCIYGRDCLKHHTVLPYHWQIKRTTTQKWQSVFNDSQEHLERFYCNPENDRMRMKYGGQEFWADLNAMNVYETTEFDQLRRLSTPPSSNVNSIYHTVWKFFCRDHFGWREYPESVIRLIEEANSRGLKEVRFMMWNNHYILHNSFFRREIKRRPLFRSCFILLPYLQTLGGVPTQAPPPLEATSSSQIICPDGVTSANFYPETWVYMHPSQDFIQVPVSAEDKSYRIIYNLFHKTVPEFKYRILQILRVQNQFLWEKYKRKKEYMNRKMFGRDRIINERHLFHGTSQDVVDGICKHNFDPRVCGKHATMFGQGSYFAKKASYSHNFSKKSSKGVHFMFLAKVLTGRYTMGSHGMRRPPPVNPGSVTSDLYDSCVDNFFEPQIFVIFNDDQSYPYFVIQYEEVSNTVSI
The assay can be described thus: Probe Displacement Assay for PARP7 (MSD electrochemiluminescent, biotinylated probe RBNO11147). As to conditions: displacement of biotinylated probe RBNO11147 from PARP7 NAD+-binding site; read-out: MSD ProbeDisp PARP7 IC50.

The subject of assay [1] is endogenous cellular STAT1 (phosphorylated at Tyr701) in NCI-H1373 cells. The assay can be described thus: Phospho-STAT1 (Tyr701) LANCE Ultra TR-FRET Detection Assay. The conditions noted are these: Homo sapiens, NCI-H1373, 48 h, phospho-STAT1 (Tyr701) induction, read-out: NH1373 pSTAT1 EC50. In kind it is cell-based. A general note: Time-resolved FRET reads energy transfer from a long-lived donor to a nearby acceptor.

Structures are written as SMILES. Some results are limits rather than exact numbers.

As usually defined, the IC50 is the concentration needed to halve the response being measured. Usually EC50 stands for the concentration needed to bring the measured effect to its halfway point. On to `C[C@@H](CCCn1ccc2cc(-c3ccc(CC(F)(F)F)cn3)cc(F)c2c1=O)Nc1cn[nH]c(=O)c1C(F)(F)F` [Example 41, 8-fluoro-2-[(4S)-4-[[6-oxo-5-(trifluoromethyl)-1H-pyridazin-4-yl]amino]pentyl]-6-[5-(2,2,2-trifluoroethyl)-2-pyridyl]isoquinolin-1-one], for which, on PARP7, the IC50 was determined as 3.7 nM. In assay [1], the EC50 was 144 nM.
The like results for `CC(=O)c1c(N[C@@H](C)CCCn2ccc3cc(-c4ncc(C(F)(F)F)cn4)ccc3c2=O)cn[nH]c1=O` [Example 15, 2-[(4S)-4-[(5-acetyl-6-oxo-1H-pyridazin-4-yl)amino]pentyl]-6-[5-(trifluoromethyl)pyrimidin-2-yl]isoquinolin-1-one] were, in that order, 0.3 nM and 576 nM.
The like results for `C[C@@H](CCCn1ccc2c(F)c(-c3ncc(C(F)(F)F)cn3)ccc2c1=O)Nc1cn[nH]c(=O)c1C(F)(F)F` [Example 6, 5-fluoro-2-[(4S)-4-[[6-oxo-5-(trifluoromethyl)-1H-pyridazin-4-yl]amino]pentyl]-6-[5-(trifluoromethyl)pyrimidin-2-yl]isoquinolin-1-one] were, in that order, 0.7 nM and 434 nM.
The like results for `O=c1[nH]ncc(N2C[C@H]3C[C@H]3[C@H]2CCCn2ccc3nc(-c4ccc(C(F)(F)F)cn4)ccc3c2=O)c1C(F)(F)F` [Example 47, 6-[3-[(1R,2R,5S)-3-[6-oxo-5-(trifluoromethyl)-1H-pyridazin-4-yl]-3-azabicyclo[3.1.0]hexan-2-yl]propyl]-2-[5-(trifluoromethyl)-2-pyridyl]-1,6-naphthyridin-5-one] were, in that order, 1.27 nM and 10000 nM.
For `CC(=O)c1c(N[C@@H](C)CCCn2ccc3cc(-c4ncc(C(F)(F)F)cn4)c(F)cc3c2=O)cn[nH]c1=O` [Example 16, (S)-2-(4-((5-acetyl-6-oxo-1,6-dihydropyridazin-4-yl)amino)pentyl)-7-fluoro-6-(5-(trifluoromethyl)pyrimidin-2-yl)isoquinolin-1(2H)-one], on PARP7, the half-maximal inhibitory concentration (IC50) was found to be 0.2 nM. Further, the half-maximal effective concentration (EC50) in assay [1] worked out at 25.2 nM.
The like results for `C[C@@H](CCCn1ccc2cc(-c3ncc(C(F)(F)F)s3)c(F)cc2c1=O)Nc1cn[nH]c(=O)c1C(F)(F)F` [Example 309, (S)-7-fluoro-2-(4-((6-oxo-5-(trifluoromethyl)-1,6-dihydropyridazin-4-yl)amino)pentyl)-6-(5-(trifluoromethyl)thiazol-2-yl)isoquinolin-1(2H)-one] were, in that order, 0.258 nM and 149 nM.
With `C[C@@H](CCCn1ccc2cc(-c3ccc(F)cn3)c(F)cc2c1=O)Nc1cn[nH]c(=O)c1C(F)(F)F` [Example 35, 7-fluoro-6-(5-fluoro-2-pyridyl)-2-[(4S)-4-[[6-oxo-5-(trifluoromethyl)-1H-pyridazin-4-yl]amino]pentyl]isoquinolin-1-one], the IC50 on PARP7 was found to be 0.5 nM. Moreover, the EC50 in assay [1] came to 436 nM.
The like results for `O=c1[nH]ncc(N[C@H](CCCn2ccc3cc(-c4ncc(C(F)(F)F)cn4)c(F)cc3c2=O)C2CC2)c1C(F)(F)F` [Example 36, 2-[(4R)-4-cyclopropyl-4-[[6-oxo-5-(trifluoromethyl)-1H-pyridazin-4-yl]amino]butyl]-7-fluoro-6-[5-(trifluoromethyl)pyrimidin-2-yl]isoquinolin-1-one] were, in that order, 0.7 nM and 74.1 nM.
The like results for `C[C@@H](CCCn1cnc2cc(-c3ccc(C(F)(F)F)cn3)c(F)cc2c1=O)Nc1cn[nH]c(=O)c1C(F)(F)F` [Example 58, (S)-6-fluoro-3-(4-((6-oxo-5-(trifluoromethyl)-1,6-dihydropyridazin-4-yl)amino)pentyl)-7-(5-(trifluoromethyl)pyridin-2-yl)quinazolin-4(3H)-one] were, in that order, 0.484 nM and 124 nM.
With `CC[C@@H](CCCn1cnc2cc(-c3ncc(C(F)F)cn3)c(F)cc2c1=O)Nc1cn[nH]c(=O)c1C(F)(F)F` [Example 156, 7-[5-(difluoromethyl)pyrimidin-2-yl]-6-fluoro-3-[(4S)-4-[[6-oxo-5-(trifluoromethyl)-1H-pyridazin-4-yl]amino]hexyl]quinazolin-4-one], the IC50 on PARP7 amounted to 0.29 nM. Also, the EC50 in assay [1] is 22.1 nM.
The like results for `C[C@@H](CCCn1ccc2cc(-c3ncc(C(F)(F)F)cn3)c(Cl)cc2c1=O)Nc1cn[nH]c(=O)c1C(F)(F)F` [Example 44, 7-chloro-2-[(4S)-4-[[6-oxo-5-(trifluoromethyl)-1H-pyridazin-4-yl]amino]pentyl]-6-[5-(trifluoromethyl)pyrimidin-2-yl]isoquinolin-1-one] were, in that order, 0.67 nM and 10000 nM.
The like results for `C[C@@H](CCCn1ccc2cc(-c3cccc4c3OCC4)c(F)cc2c1=O)Nc1cn[nH]c(=O)c1C(F)(F)F` [Example 26, (S)-6-(2,3-dihydrobenzofuran-7-yl)-7-fluoro-2-(4-((6-oxo-5-(trifluoromethyl)-1,6-dihydropyridazin-4-yl)amino)pentyl)isoquinolin-1(2H)-one] were, in that order, 0.4 nM and 10000 nM.
`O=c1[nH]ncc(N[C@H](CCCn2ccc3cc(-c4ncc(C(F)(F)F)cn4)c(F)cc3c2=O)COC(F)F)c1C(F)(F)F` [Example 168, 2-[(4R)-5-(difluoromethoxy)-4-[[6-oxo-5-(trifluoromethyl)-1H-pyridazin-4-yl]amino]pentyl]-7-fluoro-6-[5-(trifluoromethyl)pyrimidin-2-yl]isoquinolin-1-one]: the IC50 on PARP7 came to 0.256 nM. Moreover, the EC50 in assay [1] is 1.32 nM.
For the compound `C[C@@H](CCCn1ccc2cc(-c3ccc(C#N)cn3)c(F)cc2c1=O)Nc1cn[nH]c(=O)c1C(F)(F)F` [Example 25, (S)-6-(7-fluoro-1-oxo-2-(4-((6-oxo-5-(trifluoromethyl)-1,6-dihydropyridazin-4-yl)amino)pentyl)-1,2-dihydroisoquinolin-6-yl)nicotinonitrile], the IC50 at PARP7 turned out to be 0.6 nM. Also, the EC50 in assay [1] came out at 136 nM.
Take `C[C@@H](CCCn1ccc2cc(-c3ccc(OC(F)F)cn3)cc(F)c2c1=O)Nc1cn[nH]c(=O)c1C(F)(F)F` [Example 17, (S)-6-(5-(difluoromethoxy)pyridin-2-yl)-8-fluoro-2-(4-((6-oxo-5-(trifluoromethyl)-1,6-dihydropyridazin-4-yl)amino)pentyl)isoquinolin-1(2H)-one]: the IC50 at PARP7 stood at 0.4 nM. The EC50 in assay [1] was found to be 117 nM.
The like results for `C[C@@H](CCCn1ccc2cc(-c3ncc(OC(F)F)cn3)c(F)cc2c1=O)Nc1cn[nH]c(=O)c1C(F)(F)F` [Example 42, 6-[5-(difluoromethoxy)pyrimidin-2-yl]-7-fluoro-2-[(4S)-4-[[6-oxo-5-(trifluoromethyl)-1H-pyridazin-4-yl]amino]pentyl]isoquinolin-1-one] were, in that order, 1 nM and 133 nM.
For the compound `Nc1nc(-c2cc3ccn(CCC[C@H](COC(F)F)Nc4cn[nH]c(=O)c4C(F)(F)F)c(=O)c3cc2F)ccc1C(F)(F)F` [Example 380, (R)-6-(6-amino-5-(trifluoromethyl)pyridin-2-yl)-2-(5-(difluoromethoxy)-4-((6-oxo-5-(trifluoromethyl)-1,6-dihydropyridazin-4-yl)amino)pentyl)-7-fluoroisoquinolin-1(2H)-one], on PARP7, the IC50 came to 0.211 nM. The EC50 in assay [1] was 4.88 nM.
The like results for `C[C@@H](CCCn1ccc2cc(-c3ccc4c(c3)OCCO4)c(F)cc2c1=O)Nc1cn[nH]c(=O)c1C(F)(F)F` [Example 28, (S)-6-(2,3-dihydrobenzo[b][1,4]dioxin-6-yl)-7-fluoro-2-(4-((6-oxo-5-(trifluoromethyl)-1,6-dihydropyridazin-4-yl)amino)pentyl)isoquinolin-1(2H)-one] were, in that order, greater than 33 nM and 2180 nM.
As for `C[C@@H](CCCn1ccc2cc(-c3nc4ccccc4s3)c(F)cc2c1=O)Nc1cn[nH]c(=O)c1C(F)(F)F` [Example 308, (S)-6-(benzo[d]thiazol-2-yl)-7-fluoro-2-(4-((6-oxo-5-(trifluoromethyl)-1,6-dihydropyridazin-4-yl)amino)pentyl)isoquinolin-1(2H)-one], at PARP7, the IC50 worked out at 0.387 nM. The EC50 in assay [1] came out at 35.8 nM.
The like results for `C[C@@H](CCCn1ccc2cc(-c3ncc(C(F)(F)F)cn3)cnc2c1=O)Nc1cn[nH]c(=O)c1C(F)(F)F` [Example 12, 7-[(4S)-4-[[6-oxo-5-(trifluoromethyl)-1H-pyridazin-4-yl]amino]pentyl]-3-[5-(trifluoromethyl)pyrimidin-2-yl]-1,7-naphthyridin-8-one] were, in that order, 23 nM and 10000 nM.
The like results for `C[C@@H](CCCn1ccc2cc(-c3cnc(C#N)cn3)c(F)cc2c1=O)Nc1cn[nH]c(=O)c1C(F)(F)F` [Example 23, (S)-5-(7-fluoro-1-oxo-2-(4-((6-oxo-5-(trifluoromethyl)-1,6-dihydropyridazin-4-yl)amino)pentyl)-1,2-dihydroisoquinolin-6-yl)pyrazine-2-carbonitrile] were, in that order, 0.4 nM and 2300 nM.
